Paper PMC9933715 (Antimicrobial Agents and Chemotherapy, 2023)

Columns and labels:
[1] = tested on: Huh7.5 cells; assay: Cell viability, CellTiter-Glo luminescent assay; conditions: deconvolution screen, singletons, 50 µM, uninfected Huh7.5
[2] = tested on: DENV-R2A (Rluc-expressing DENV, serotype 2 strain 16681); assay: microbe, parasite or virus in culture; assay type: cell-based, Dengue virus; conditions: Dengue virus, Huh7.5, 48 h, read-out: DENV-R2A replication (fold DMSO) Mean, deconvolution screen, singletons, 50 µM, Huh7.5, 2 days postinfection
[3] = tested on: ZIKV-R2A (strain FSS13025); assay: microbe, parasite or virus in culture; assay type: cell-based; conditions: Zika virus, Huh7.5, 48 h, read-out: ZIKV-R2A replication (fold DMSO) Mean

N#CCC(=O)Nc1ccccc1 [Compound 9B-046, O=C(CC#N)Nc1ccccc1]
Cell viability (fold DMSO) Mean [1]: 1.17 fold DMSO | activity at 50 µM [2]: 96% | activity at 50 µM [3]: 104%

NC(=O)NCc1cccc(Cl)c1 [Compound 9M-050, NC(=O)NCc1cccc(Cl)c1]
Cell viability (fold DMSO) Mean [1]: 1.27 fold DMSO | activity at 50 µM [2]: 100% | activity at 50 µM [3]: 110%

Cc1cc(C)n2ccnc2c1 [Compound 9X-0854, Cc1cc(C)n2ccnc2c1]
Cell viability (fold DMSO) Mean [1]: 1.21 fold DMSO | activity at 50 µM [2]: 94% | activity at 50 µM [3]: 98%

Cc1onc(-c2ccccc2)c1C#N [Compound 10B-058, Cc1onc(c2ccccc2)c1C#N]
Cell viability (fold DMSO) Mean [1]: 0.98 fold DMSO | activity at 50 µM [2]: 102% | activity at 50 µM [3]: 106%

CN1C(=O)Cc2ccccc2C1=O [Compound 10L-733, CN1C(=O)Cc2ccccc2C1=O]
Cell viability (fold DMSO) Mean [1]: 0.94 fold DMSO | activity at 50 µM [2]: 101% | activity at 50 µM [3]: 114%

OCc1cc2c(cc1Br)OCO2 [Compound 10P-113, OCc1cc2OCOc2cc1Br]
Cell viability (fold DMSO) Mean [1]: 0.88 fold DMSO | activity at 50 µM [2]: 86% | activity at 50 µM [3]: 103%

CC(=O)c1cc(Br)cs1 [Compound 10X-0139, CC(=O)c1cc(Br)cs1]
Cell viability (fold DMSO) Mean [1]: 1.20 fold DMSO | activity at 50 µM [2]: 98% | activity at 50 µM [3]: 108%

CC(C)(C)OC(=O)N1CCCCn2nc(CO)cc2C1 [Compound 10X-0603, CC(C)(C)OC(=O)N1CCCCn2nc(CO)cc2C1]
Cell viability (fold DMSO) Mean [1]: 1.07 fold DMSO | activity at 50 µM [2]: 106% | activity at 50 µM [3]: 104%

CNC(=O)c1cc(Br)c[nH]1 [Compound 10Y-0822, CNC(=O)c1cc(Br)c[nH]1]
Cell viability (fold DMSO) Mean [1]: 0.89 fold DMSO | activity at 50 µM [2]: 75% | activity at 50 µM [3]: 77%

CCN1C(=O)CCCc2ccccc21 [Compound 11N-585S, CCN1C(=O)CCCc2ccccc12]
Cell viability (fold DMSO) Mean [1]: 0.93 fold DMSO | activity at 50 µM [2]: 102% | activity at 50 µM [3]: 97%

CC1(C)CN2C(=O)c3ccccc3C2S1 (stereo not drawn) [Compound 12R-0242, CC1(C)CN2C(S1)c3ccccc3C2=O]
Cell viability (fold DMSO) Mean [1]: 0.81 fold DMSO | activity at 50 µM [2]: 62% | activity at 50 µM [3]: 74%

Cc1cc2c(cc1C)NC(C)CC(=O)N2 (stereo not drawn) [Compound 12W-0869, CC1CC(=O)Nc2cc(C)c(C)cc2N1]
Cell viability (fold DMSO) Mean [1]: 1.09 fold DMSO | activity at 50 µM [2]: 85% | activity at 50 µM [3]: 97%

Cc1cc(O)cc(C)c1CO [DK-0713, Cc1cc(O)cc(C)c1CO]
Cell viability (fold DMSO) Mean [1]: 1.04 fold DMSO | activity at 50 µM [2]: 96% | activity at 50 µM [3]: 93%

Cn1cc(Br)c2c(N)ncnc21 [EK-0205, Cn1cc(Br)c2c(N)ncnc12]
Cell viability (fold DMSO) Mean [1]: 0.87 fold DMSO | activity at 50 µM [2]: 51% | activity at 50 µM [3]: 63%

Cc1ccc(N2CCNC2=O)c(C)c1 [FA-0890, Cc1ccc(N2CCNC2=O)c(C)c1]
Cell viability (fold DMSO) Mean [1]: 1.08 fold DMSO | activity at 50 µM [2]: 99% | activity at 50 µM [3]: 112%

Cc1cccc(N2CCNCC2)n1 [FS-1568, Cc1cccc(n1)N2CCNCC2]
Cell viability (fold DMSO) Mean [1]: 1.22 fold DMSO | activity at 50 µM [2]: 91% | activity at 50 µM [3]: 102%

CCCC(=O)c1cccs1 [FS-1782, CCCC(=O)c1cccs1]
Cell viability (fold DMSO) Mean [1]: 1.02 fold DMSO | activity at 50 µM [2]: 104% | activity at 50 µM [3]: 104%

Nc1oncc1-c1ccc(Cl)cc1 [FS-2048, Nc1oncc1c2ccc(Cl)cc2]
Cell viability (fold DMSO) Mean [1]: 0.90 fold DMSO | activity at 50 µM [2]: 57% | activity at 50 µM [3]: 61%

O=C(c1ccccc1)C1(O)CCCCC1 [FS-3226, OC1(CCCCC1)C(=O)c2ccccc2]
Cell viability (fold DMSO) Mean [1]: 1.07 fold DMSO | activity at 50 µM [2]: 96% | activity at 50 µM [3]: 109%

Cc1ccc(C2CNCCN2)cc1 (stereo not drawn) [FS-3294, Cc1ccc(cc1)C2CNCCN2]
Cell viability (fold DMSO) Mean [1]: 1.08 fold DMSO | activity at 50 µM [2]: 74% | activity at 50 µM [3]: 96%

OCc1cc2cc(Br)ccc2[nH]1 [GA-0936, OCc1cc2cc(Br)ccc2[nH]1]
Cell viability (fold DMSO) Mean [1]: 0.83 fold DMSO | activity at 50 µM [2]: 13% | activity at 50 µM [3]: 63%

Clc1ccc2nncn2c1 [GC-0731, Clc1ccc2nncn2c1]
Cell viability (fold DMSO) Mean [1]: 1.03 fold DMSO | activity at 50 µM [2]: 94% | activity at 50 µM [3]: 102%

CC(=O)Nc1cc(C)ccc1F [MS-0037, CC(=O)Nc1cc(C)ccc1F]
Cell viability (fold DMSO) Mean [1]: 1.28 fold DMSO | activity at 50 µM [2]: 103% | activity at 50 µM [3]: 114%

CNC(=O)Nc1ccc(F)c(C)c1 [MS-0046, CNC(=O)Nc1ccc(F)c(C)c1]
Cell viability (fold DMSO) Mean [1]: 1.00 fold DMSO | activity at 50 µM [2]: 96% | activity at 50 µM [3]: 97%

O=C1CCCc2cc(O)ccc21 [MS-2425, Oc1ccc2C(=O)CCCc2c1]
Cell viability (fold DMSO) Mean [1]: 1.05 fold DMSO | activity at 50 µM [2]: 98% | activity at 50 µM [3]: 92%

N#CCOc1cccc2ccccc12 [MS-7107, N#CCOc1cccc2ccccc12]
Cell viability (fold DMSO) Mean [1]: 1.01 fold DMSO | activity at 50 µM [2]: 65% | activity at 50 µM [3]: 84%

CC(N)c1cccnc1 (stereo not drawn) [PS-3055, CC(N)c1cccnc1]
Cell viability (fold DMSO) Mean [1]: 0.98 fold DMSO | activity at 50 µM [2]: 100% | activity at 50 µM [3]: 111%

Cc1cc(O)cc(O)n1 [PS-3153, Cc1cc(O)cc(O)n1]
Cell viability (fold DMSO) Mean [1]: 0.97 fold DMSO | activity at 50 µM [2]: 100% | activity at 50 µM [3]: 109%

Oc1ccc2[nH]ccc2c1 [PS-3277, Oc1ccc2[nH]ccc2c1]
Cell viability (fold DMSO) Mean [1]: 1.23 fold DMSO | activity at 50 µM [2]: 52% | activity at 50 µM [3]: 74%

Clc1ccc2nccnc2c1 [PS-3410, Clc1ccc2nccnc2c1]
Cell viability (fold DMSO) Mean [1]: 1.20 fold DMSO | activity at 50 µM [2]: 95% | activity at 50 µM [3]: 108%

CN1CCN(c2ccccc2CN)CC1 [PS-3674, CN1CCN(CC1)c2ccccc2CN]
Cell viability (fold DMSO) Mean [1]: 0.94 fold DMSO | activity at 50 µM [2]: 60% | activity at 50 µM [3]: 89%

NC(=O)C1CCCNC1 (stereo not drawn) [PS-3699, NC(=O)C1CCCNC1]
Cell viability (fold DMSO) Mean [1]: 0.94 fold DMSO | activity at 50 µM [2]: 95% | activity at 50 µM [3]: 113%

Oc1ccc2ncccc2c1 [PS-3719, Oc1ccc2ncccc2c1]
Cell viability (fold DMSO) Mean [1]: 1.19 fold DMSO | activity at 50 µM [2]: 93% | activity at 50 µM [3]: 107%

Cc1ccnc2ccccc12 [PS-3771, Cc1ccnc2ccccc12]
Cell viability (fold DMSO) Mean [1]: 0.92 fold DMSO | activity at 50 µM [2]: 101% | activity at 50 µM [3]: 107%

Nc1ccc(Cl)cc1Br [PS-3798, Nc1ccc(Cl)cc1Br]
Cell viability (fold DMSO) Mean [1]: 0.99 fold DMSO | activity at 50 µM [2]: 94% | activity at 50 µM [3]: 111%

COC(=O)c1cc(Br)no1 [PS-3994, COC(=O)c1onc(Br)c1]
Cell viability (fold DMSO) Mean [1]: 1.07 fold DMSO | activity at 50 µM [2]: 98% | activity at 50 µM [3]: 114%

Nc1cccc(Cl)c1Cl [PS-4077, Nc1cccc(Cl)c1Cl]
Cell viability (fold DMSO) Mean [1]: 0.97 fold DMSO | activity at 50 µM [2]: 96% | activity at 50 µM [3]: 120%

Nc1ccccc1N1CCCCC1 [PS-4134, Nc1ccccc1N2CCCCC2]
Cell viability (fold DMSO) Mean [1]: 1.12 fold DMSO | activity at 50 µM [2]: 111% | activity at 50 µM [3]: 107%

Cc1onc(-c2ccccc2)c1CN [PS-4242, Cc1onc(c1CN)c2ccccc2]
Cell viability (fold DMSO) Mean [1]: 0.92 fold DMSO | activity at 50 µM [2]: 91% | activity at 50 µM [3]: 103%
